Assay results reported in the supplement of paper PMC10307832.

How the values were obtained:
Test in all cases: relative viability (nuclei count vs DMSO), 5 days (fraction); higher = more cells survive
CUDC-101 = compound: C#Cc1cccc(Nc2ncnc3cc(OC)c(OCCCCCCC(=O)NO)cc23)c1 [CUDC-101]
Summary of the method: (§1)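 After an overnight hold at 37 °C, lung cancer cell lines in 1536-well plates were pinned with five library-drug doses (not always all listed), each √10 from the next, on vehicle-anchored plates. The cells stayed 5 days without fresh medium, then a one-step fix, permeabilisation and Hoechst stain preceded 4× imaging and MetaXpress nuclear counts. A plate passed only with control CV under 25% and at least one doubling. Viability is the median, over plates, of treated-well nuclei relative to vehicle-well nuclei.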

[1] = compound: C1=CC=C2C(=C1)N=C(S2)C(C#N)C3=NC(=NC=C3)NCCC4=CN=CC=C4
Summary of the method: as §1

NVP-TAE684 = compound: COc1cc(N2CCC(N3CCN(C)CC3)CC2)ccc1Nc1ncc(Cl)c(Nc2ccccc2S(=O)(=O)C(C)C)n1 [NVP-TAE684]
Summary of the method: as §1

Vandetanib = compound: COc1cc2/c(=N/c3ccc(Br)cc3F)nc[nH]c2cc1OCC1CCN(C)CC1 [Vandetanib]
Summary of the method: as §1

Cell Line | relative viability (CUDC-101; 0.01 µM) | relative viability (CUDC-101; 0.03162 µM) | relative viability (CUDC-101; 0.1 µM) | relative viability (CUDC-101; 0.3162 µM) | relative viability (CUDC-101; 1 µM) | relative viability ([1]; 0.005 µM) | relative viability ([1]; 0.01581 µM) | relative viability ([1]; 0.05 µM) | relative viability ([1]; 0.1581 µM) | relative viability ([1]; 0.5 µM) | relative viability (NVP-TAE684; 0.2 µM) | relative viability (NVP-TAE684; 0.6325 µM) | relative viability (NVP-TAE684; 2 µM) | relative viability (Vandetanib; 0.02 µM) | relative viability (Vandetanib; 0.06325 µM) | relative viability (Vandetanib; 0.2 µM) | relative viability (Vandetanib; 0.6325 µM) | relative viability (Vandetanib; 2 µM)
HCC-44 | 0.858 | 1.03 | 1.02 | 0.951 | 0.968 | 0.999 | 1.03 | 1.04 | 1.05 | 1 | 1.09 | 0.969 | 0.749 | 0.939 | 0.965 | 1.02 | 0.998 | 0.966
EKVX | 1.02 | 1.04 | 0.883 | 1.1 | 0.772 | 1.08 | 0.939 | 0.947 | 1.04 | 0.952 | 0.862 | 0.873 | 0.719 | 1 | 0.928 | 0.925 | 0.773 | 0.608
NCI-H23 | 1.13 | 1 | 1.1 | 1.11 | 0.922 | 0.691 | 0.941 | 0.967 | 1.24 | 1.02 | 0.989 | 0.796 | 0.538 | 1.09 | 0.975 | 0.894 | 0.926 | 0.901
NCI-H2347 | 1.1 | 1.04 | 1.07 | 1.11 | 0.972 | 1.11 | 1.09 | 0.995 | 1.05 | 1.02 | 0.964 | 0.932 | 0.986 | 1.03 | 0.785 | 1.03 | 1.06 | 0.988
SK-LU-1 | 1.19 | 0.988 | 1.07 | 0.963 | 0.87 | 0.783 | 1.21 | 1.03 | 1.18 | 0.948 | 1.12 | 0.962 | 0.733 | 1.01 | 0.791 | 1.02 | 1.07 | 0.984
A549 | 1.04 | 0.967 | 1 | 1.04 | 0.799 | 0.914 | 1.03 | 0.969 | 1.05 | 0.901 | 1.1 | 0.951 | 0.585 | 1 | 0.894 | 0.913 | 0.907 | 0.922
LU99A | 1.07 | 0.877 | 0.808 | 0.9 | 0.58 | 0.779 | 0.995 | 0.877 | 1.04 | 0.972 | 0.998 | 0.942 | 0.616 | 0.839 | 0.846 | 0.92 | 0.895 | 0.951
NCI-H596 | 0.97 | 1.01 | 1.04 | 1.05 | 0.88 | 0.791 | 0.962 | 1.01 | 1.07 | 0.928 | 0.959 | 1.03 | – | 0.937 | 0.876 | 0.954 | 0.993 | 1
A-427 | 1.02 | 0.978 | 0.949 | 0.932 | 0.738 | 0.993 | 0.875 | 0.919 | 1.15 | 0.95 | 1.11 | 0.847 | 0.863 | 0.955 | 0.963 | 0.953 | 0.98 | 0.96
SW 900 | 0.927 | 0.881 | 0.803 | 0.878 | 0.624 | 0.899 | 0.845 | 0.885 | 1 | 0.823 | 0.96 | 0.754 | 0.776 | 0.898 | 0.887 | 0.65 | 0.93 | 0.775
COR-L 105 | 0.951 | 1.01 | 0.815 | 0.906 | 0.482 | 0.8 | 0.711 | 0.774 | 0.941 | 0.768 | 1.03 | 0.68 | 0.452 | 0.936 | 0.875 | 0.911 | 0.641 | 0.457
LOU-NH91 | 1.06 | 0.846 | 0.932 | 0.872 | 0.646 | 0.954 | 0.875 | 0.815 | 1.02 | 0.916 | 0.966 | 0.833 | 0.703 | 0.986 | 0.869 | 0.825 | 0.823 | 0.859
COR-L23 | 1.11 | 0.99 | 1.05 | 0.974 | 0.641 | 0.944 | 1.13 | 1.05 | 1.2 | 0.884 | 0.972 | 1 | 0.481 | 0.974 | 0.93 | 1.02 | 1.08 | 1.06
HCC-15 | 0.969 | 0.989 | 1.01 | 1.11 | 0.897 | 0.96 | 0.989 | 1.03 | 1.12 | 0.919 | 0.913 | 0.973 | 0.808 | 1.01 | 0.919 | 0.982 | 1 | 1.03
LCLC-103H | 0.987 | 1.01 | 1.06 | 1.05 | 0.926 | 0.928 | 0.952 | 0.955 | 1.07 | 0.947 | 1.08 | 0.956 | 0.938 | 0.959 | 0.92 | 1.05 | 0.899 | 0.931
HARA | 1.01 | 0.942 | 0.774 | 0.861 | 0.39 | 1.1 | 0.769 | 0.994 | 1.09 | 0.93 | – | 0.838 | 0.667 | 1.13 | 0.939 | 0.914 | 0.899 | 0.942
BEN | 1.11 | 0.833 | 1.06 | 0.856 | 0.708 | 0.864 | 0.908 | 0.97 | 1.04 | 1.08 | 0.933 | 0.73 | 0.876 | 0.941 | 0.916 | 0.886 | 0.933 | 0.988
LC-2-ad | 1.01 | 0.989 | 1.03 | 0.963 | 0.758 | 0.923 | 0.9 | 0.999 | 1.11 | 0.961 | 0.975 | 0.848 | 0.654 | 1.02 | 0.893 | 1.01 | 0.868 | 0.438
